Key:
[1] = biological target: T1, Adrenergic β2 (Homo sapiens, UniProt P07550); test: Adrenergic β2 mediated cAMP production in H292 cells (AlphaScreen), concentration response; format: cell-based; conditions: for EC50: 60 min, 300 μM rolipram, read-out: β2 pEC50 (converted); for β2 Intrinsic Activity: fraction relative to the maximum activity determined for formoterol
T1 construct: Adherent H292 cells are removed from tissue culture flasks by treatment with Accutase™ cell detachment solution; endogenous in cells; host or cells: H292 cells
T1 sequence (P07550 whole entry): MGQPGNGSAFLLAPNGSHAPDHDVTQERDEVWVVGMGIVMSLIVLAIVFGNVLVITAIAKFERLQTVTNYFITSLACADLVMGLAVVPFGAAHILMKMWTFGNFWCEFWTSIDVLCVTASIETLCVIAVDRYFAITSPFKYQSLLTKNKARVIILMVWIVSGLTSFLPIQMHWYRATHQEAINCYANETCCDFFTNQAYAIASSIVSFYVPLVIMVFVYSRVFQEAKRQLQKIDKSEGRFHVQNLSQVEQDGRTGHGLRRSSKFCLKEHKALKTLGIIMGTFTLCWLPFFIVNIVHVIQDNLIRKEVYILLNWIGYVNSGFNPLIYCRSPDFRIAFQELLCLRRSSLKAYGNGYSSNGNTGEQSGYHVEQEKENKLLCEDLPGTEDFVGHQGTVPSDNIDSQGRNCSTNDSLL
Procedure, shortened: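 H292 cells seeded overnight, pretreated 10 min with rolipram (300 μM final), then exposed to compounds 60 min at room temperature in HBSS/10 mM HEPES pH 7.4/5 mM glucose, 1% DMSO. Lysate cAMP quantified by AlphaScreen against a standard curve; four-parameter fit gives pEC50 and intrinsic activity relative to formoterol maximum.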

[2] = biological target: T2, human muscarinic acetylcholine M3 receptor (Homo sapiens, UniProt P20309); test: Muscarinic 3 receptor binding assay ([3H]NMS competition, SPA), single concentration 1 μM; conditions: 1 μM compound; % inhibition specific [3H]-NMS binding
T2 construct: expressed in transfected cells; host or cells: CHO-K1 (Chinese Hamster Ovary) cell membranes
T2 sequence (P20309 whole entry): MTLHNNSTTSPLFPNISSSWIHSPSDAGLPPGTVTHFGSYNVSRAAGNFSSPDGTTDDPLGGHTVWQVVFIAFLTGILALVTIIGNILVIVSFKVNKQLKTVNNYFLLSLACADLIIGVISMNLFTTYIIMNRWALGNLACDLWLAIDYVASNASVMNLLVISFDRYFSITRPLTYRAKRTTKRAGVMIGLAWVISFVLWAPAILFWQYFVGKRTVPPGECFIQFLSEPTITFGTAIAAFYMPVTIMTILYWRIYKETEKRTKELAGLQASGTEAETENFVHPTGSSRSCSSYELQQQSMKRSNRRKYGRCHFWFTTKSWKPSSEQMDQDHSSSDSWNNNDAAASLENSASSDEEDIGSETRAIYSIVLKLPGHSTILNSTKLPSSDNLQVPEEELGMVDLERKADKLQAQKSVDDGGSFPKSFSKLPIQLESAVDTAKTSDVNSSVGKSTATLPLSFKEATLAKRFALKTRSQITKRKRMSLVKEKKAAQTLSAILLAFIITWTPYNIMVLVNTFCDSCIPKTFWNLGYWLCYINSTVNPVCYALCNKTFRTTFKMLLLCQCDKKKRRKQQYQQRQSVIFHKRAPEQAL
Procedure, shortened: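 CHO-K1 membranes expressing human M3 on SPA beads, competition with 0.1 nM [3H]NMS (quarter Kd) in 20 mM HEPES pH 7.4, 5 mM MgCl2, 0.1% BSA, 1% DMSO; compound at 1 μM. 16 h at room temperature. Value is % inhibition of specific binding, non-specific defined with 1 μM atropine.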

[3] = biological target: T1, Adrenergic β2; test: Adrenergic β2 mediated cAMP production in H292 cells, single concentration 1 μM; format: cell-based; conditions: NCI-H292, 1 μM compound, cAMP as percentage of the maximum response generated by 1E-07M formoterol, read-out: β2 % effect @1 uM
Procedure, shortened: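 H292 cells pretreated with rolipram (300 μM final) 10 min, then compound at 1 μM final, 1% DMSO, 60 min at room temperature in HBSS/10 mM HEPES pH 7.4/5 mM glucose. Lysate cAMP quantified by AlphaScreen against a standard curve, as % of maximal response to 1E-07M formoterol.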

[4] = biological target: T2, human muscarinic acetylcholine M3 receptor; test: Muscarinic 3 receptor binding assay ([3H]NMS competition, SPA), pIC50; conditions: [3H]NMS 0.1 nM, CHO-K1 cell membranes expressing human M3 receptor
Procedure, shortened: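 Competition of [3H]NMS (0.1 nM, quarter Kd) binding to CHO-K1 membranes expressing human M3, SPA format, in 20 mM HEPES pH 7.4, 5 mM MgCl2, 0.1% BSA, 1% DMSO. Incubated 16 h at room temperature; non-specific binding with 1 μM atropine; pIC50 from specific binding.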

| SMILES | EC50 [1] | β2 Intrinsic Activity [1] | inhibition at 1 µM [2] | percent of formoterol maximum response at 1 µM [3] | IC50 [4] |
| --- | --- | --- | --- | --- | --- |
| O=C1COc2c(CCNCCN(C(=O)CCOCCc3cccc(CN4CCC5(CC4)CN(C(=O)c4ccc(Cl)s4)CCO5)c3)C3CCCCC3)ccc(O)c2N1 [Example 106, 3-(3-((4-(5-Chlorothiophene-2-carbonyl)-1-oxa-4,9-diazaspiro[5.5]undecan-9-yl)methyl)phenethoxy)-N-cyclohexyl-N-(2-(2-(5-hydroxy-3-oxo-3,4-dihydro-2H-benzo[b][1,4]oxazin-8-yl)ethylamino)ethyl)propanamide] | 0.0501 µM | 1.0 | 100% | 102% | 0.000631 µM |
| O=C1COc2c(CCNCCN(C(=O)CCOCCc3cccc(CN4CCC5(CC4)CN(C(=O)c4cc6ccccn6n4)CCO5)c3)C3CCCCC3)ccc(O)c2N1 [Example 146, N-Cyclohexyl-N-(2-(2-(5-hydroxy-3-oxo-3,4-dihydro-2H-benzo[b][1,4]oxazin-8-yl)ethylamino)ethyl)-3-(3-((4-(pyrazolo[1,5-a]pyridine-2-carbonyl)-1-oxa-4,9-diazaspiro[5.5]undecan-9-yl)methyl)phenethoxy)propanamide] | 0.0794 µM | 0.9 | 100% | 96% | 0.000398 µM |
| O=C1COc2c(CCNCCN(C(=O)CCOCCc3cccc(CN4CCC5(CC4)CN(C(=O)c4csc(CC(F)(F)F)n4)CCO5)c3)C3CCCCC3)ccc(O)c2N1 [Example 174, N-Cyclohexyl-N-(2-(2-(5-hydroxy-3-oxo-3,4-dihydro-2H-benzo[b][1,4]oxazin-8-yl)ethylamino)ethyl)-3-(3-((4-(2-(2,2,2-trifluoroethyl)thiazole-4-carbonyl)-1-oxa-4,9-diazaspiro[5.5]undecan-9-yl)methyl)phenethoxy)propanamide] | 0.0501 µM | 1.0 | 100% | 88% | 0.000251 µM |
| O=C1COc2c(CCNCCN(C(=O)CCOCCc3cccc(CN4CCC5(CC4)CN(C(=O)[C@@H]4C[C@H]4c4ccccc4)CCO5)c3)C3CCCCC3)ccc(O)c2N1 [Example 167, N-Cyclohexyl-N-(2-(2-(5-hydroxy-3-oxo-3,4-dihydro-2H-benzo[b][1,4]oxazin-8-yl)ethylamino)ethyl)-3-(3-((4-((1R,2R)-2-phenylcyclopropanecarbonyl)-1-oxa-4,9-diazaspiro[5.5]undecan-9-yl)methyl)phenethoxy)propanamide] | 0.1 µM | 0.4 | 101% | 105% | 0.000316 µM |
| Cc1ccn2cc(C(=O)N3CCOC4(CCN(Cc5cccc(CCOCCC(=O)N(CCNCCc6ccc(O)c7c6OCC(=O)N7)C6CCCCC6)c5)CC4)C3)nc2c1 [Example 150, N-Cyclohexyl-N-(2-(2-(5-hydroxy-3-oxo-3,4-dihydro-2H-benzo[b][1,4]oxazin-8-yl)ethylamino)ethyl)-3-(3-((4-(7-methylimidazo[1,2-a]pyridine-2-carbonyl)-1-oxa-4,9-diazaspiro[5.5]undecan-9-yl)methyl)phenethoxy)propanamide] | 0.0794 µM | 0.5 | 99% | 104% | 0.00316 µM |
| O=C1COc2c(CCNCCN(C(=O)CCOCCc3cccc(CN4CCC5(CC4)CN(C(=O)c4ccc6cccnc6n4)CCO5)c3)C3CCCCC3)ccc(O)c2N1 [Example 161, 3-(3-((4-(1,8-Naphthyridine-2-carbonyl)-1-oxa-4,9-diazaspiro[5.5]undecan-9-yl)methyl)phenethoxy)-N-cyclohexyl-N-(2-(2-(5-hydroxy-3-oxo-3,4-dihydro-2H-benzo[b][1,4]oxazin-8-yl)ethylamino)ethyl)propanamide] | 0.0398 µM | 1.0 | 100% | 97% | 0.000501 µM |
| CC(C)c1cc(C(=O)N2CCOC3(CCN(Cc4cccc(CCOCCC(=O)N(CCNCCc5ccc(O)c6c5OCC(=O)N6)C5CCCCC5)c4)CC3)C2)no1 [Example 147, N-Cyclohexyl-N-(2-(2-(5-hydroxy-3-oxo-3,4-dihydro-2H-benzo[b][1,4]oxazin-8-yl)ethylamino)ethyl)-3-(3-((4-(5-isopropylisoxazole-3-carbonyl)-1-oxa-4,9-diazaspiro[5.5]undecan-9-yl)methyl)phenethoxy)propanamide] | 0.158 µM | 1.0 | 99% | 107% | 0.00158 µM |
| CCc1cc(C(=O)N2CCOC3(CCN(Cc4cccc(CCOCCC(=O)N(CCNCCc5ccc(O)c6c5OCC(=O)N6)C5CCCCC5)c4)CC3)C2)cs1 [Example 144, N-Cyclohexyl-3-(3-((4-(5-ethylthiophene-3-carbonyl)-1-oxa-4,9-diazaspiro[5.5]undecan-9-yl)methyl)phenethoxy)-N-(2-(2-(5-hydroxy-3-oxo-3,4-dihydro-2H-benzo[b][1,4]oxazin-8-yl)ethylamino)ethyl)propanamide] | 0.0398 µM | 1.0 | 100% | 100% | 0.000158 µM |
| O=C1COc2c(CCNCCN(C(=O)CCOCCc3cccc(CN4CCC5(CC4)CN(C(=O)c4ccc(C(F)(F)F)cn4)CCO5)c3)C3CCCCC3)ccc(O)c2N1 [Example 149, N-Cyclohexyl-N-(2-(2-(5-hydroxy-3-oxo-3,4-dihydro-2H-benzo[b][1,4]oxazin-8-yl)ethylamino)ethyl)-3-(3-((4-(5-(trifluoromethyl)picolinoyl)-1-oxa-4,9-diazaspiro[5.5]undecan-9-yl)methyl)phenethoxy)propanamide] | 0.126 µM | 1.0 | 99% | 90% | 0.000501 µM |
| Cc1ccoc1C(=O)N1CCOC2(CCN(Cc3cccc(CCOCCC(=O)N(CCNCCc4ccc(O)c5c4OCC(=O)N5)C4CCCCC4)c3)CC2)C1 [Example 159, N-Cyclohexyl-N-(2-(2-(5-hydroxy-3-oxo-3,4-dihydro-2H-benzo[b][1,4]oxazin-8-yl)ethylamino)ethyl)-3-(3-((4-(3-methylfuran-2-carbonyl)-1-oxa-4,9-diazaspiro[5.5]undecan-9-yl)methyl)phenethoxy)propanamide] | 0.0794 µM | 0.9 | 100% | 87% | 0.00126 µM |
| Cc1ccc(C(=O)N2CCOC3(CCN(Cc4cccc(CCOCCC(=O)N(CCNCCc5ccc(O)c6c5OCC(=O)N6)C5CCCCC5)c4)CC3)C2)s1 [Example 154, N-Cyclohexyl-N-(2-(2-(5-hydroxy-3-oxo-3,4-dihydro-2H-benzo[b][1,4]oxazin-8-yl)ethylamino)ethyl)-3-(3-((4-(5-methylthiophene-2-carbonyl)-1-oxa-4,9-diazaspiro[5.5]undecan-9-yl)methyl)phenethoxy)propanamide] | 0.1 µM | 1.0 | 101% | 101% | 0.000316 µM |

— US8476265B2, “Compounds-801” (AstraZeneca AB, priority 2010, dated 2013)
